The molecules below were run against T1, hα2A receptor (Homo sapiens, UniProt P08913) (assay: Radioligand binding experiment for α2A-adrenergic receptor ([3H]-raulwolscine)). Conditions: CHO cell membranes with human α2A receptor, [3H]raulwolscine 1 nM; read-out: pIC50 α2A (converted).
T1 construct: expressed in transfected cells; host or cells: CHO cells
T1 sequence (P08913 1-465): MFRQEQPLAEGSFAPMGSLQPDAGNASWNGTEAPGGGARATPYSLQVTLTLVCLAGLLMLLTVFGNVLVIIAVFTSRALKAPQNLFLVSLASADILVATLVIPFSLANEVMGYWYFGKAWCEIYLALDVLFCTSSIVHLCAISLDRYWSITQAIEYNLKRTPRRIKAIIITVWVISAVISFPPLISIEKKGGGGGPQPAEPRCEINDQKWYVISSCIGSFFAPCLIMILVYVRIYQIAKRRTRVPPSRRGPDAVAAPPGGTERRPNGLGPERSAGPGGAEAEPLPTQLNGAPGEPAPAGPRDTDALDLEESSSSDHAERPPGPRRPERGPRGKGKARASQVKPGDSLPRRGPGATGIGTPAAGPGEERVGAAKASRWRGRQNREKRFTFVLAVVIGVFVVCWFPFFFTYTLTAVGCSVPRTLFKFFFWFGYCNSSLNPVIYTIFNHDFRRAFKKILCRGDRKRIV
Experimental: (§1) The interaction of the compounds of Formula (I) with hα2-receptors and h5-HT-transporters was assessed in in vitro radioligand binding experiments. In general, a low concentration of a radioligand with a high binding affinity for a particular receptor or transporter is incubated with a sample of a tissue preparation enriched in a particular receptor or transporter or with a preparation of cells expressing cloned human receptors in a buffered medium. During the incubation, the radioligand binds to the receptor or transporter. When equilibrium of binding is reached, the receptor bound radioactivity is separated from the non-bound radioactivity, and the receptor- or transporter-bound activity is counted. The interaction of the test compounds with the receptor is assessed in competition binding experiments. Various concentrations of the test compound are added to the incubation mixture containing the receptor- or transporter preparation and the radioligand. The test compound in proportion to its binding affinity and its concentration inhibits binding of the radioligand. The radioligand used for hα2A, hα2B and hα2C receptor binding was [^3H]-raulwolscine and for the h5-HT transporter was [^3H]paroxetine.
(§2) CHO cells, stabile transfected with human adrenergic-α2A-, -α2B or α2C receptor cDNA, were cultured in Dulbecco's Modified Eagle's Medium (DMEM)/Nutrient mixture Ham's F12 (ratio 1:1)(Gibco, Gent-Belgium) supplemented with 10% heat inactivated fetal calf serum (Life Technologies, Merelbeke-Belgium) and antibiotics (100 IU/ml penicillin G, 100 μg/ml streptomycin sulphate, 110 μg/ml pyruvic acid and 100 μg/ml L-glutamine). One day before collection, cells were induced with 5 mM sodiumbutyrate. Upon 80-90% of confluence, cells were scraped in phosphate buffered saline without Ca^2+ and Mg^2+ and collected by centrifugation at 1500×g for 10 min. The cells were homogenised in Tris-HCl 50 mM using an Ultraturrax homogenizer and centrifuged for 10 min at 23,500×g. The pellet was washed once by resuspension and rehomogenization and the final pellet was resuspended in Tris-HCl, divided in 1 ml aliquots and stored at −70° C.
(§3) Membranes were thawed and re-homogenized in incubation buffer (glycylglycine 25 mM, pH 8.0). In a total volume of 500 μl, 2-10 μg protein was incubated with [^3H]raulwolscine (NET-722) (New England Nuclear, USA) (1 nM final concentration) with or without competitor for 60 min at 25° C. followed by rapid filtration over GF/B filter using a Filtermatel 96 harvester (Packard, Meriden, Conn.). Filters were rinsed extensively with ice-cold rinsing buffer (Tris-HCl 50 mM pH 7.4). Filter-bound radioactivity was determined by scintillation counting in a Topcount (Packard, Meriden, Conn.) and results were expressed as counts per minute (cpm). Non-specific binding was determined in the presence of 1 μM oxymetazoline for hα2A- and hα2B receptors and 1 μM spiroxatrine for hα2C receptors.
(§4) Data from assays in the presence of compound were calculated as a percentage of total binding measured in the absence of test compound. Inhibition curves, plotting percent of total binding versus the log value of the concentration of the test compound, were automatically generated, and sigmoidal inhibition curves were fitted using non-linear regression. The pIC50 values of test compounds were derived from individual curves.

SMILES	IC50 [nM]
COc1cc2c(cc1N1CCCC1C)OCC1C2=NOC1CN1CCN(CC(C)=Cc2ccc(F)cc2)CC1 (stereo not drawn) [Compound 101]	39.8
COc1cc2c(cc1NCCN)OCC1C2=NOC1CN1CCN(CC(C)=Cc2ccc(F)cc2)CC1 (stereo not drawn) [Compound 97]	31.6
C/C(=C\c1ccccc1)CN1CCN(CC2ON=C3c4ccc(N(C)CCN(C)C)cc4OCC32)CC1 (stereo not drawn) [Compound 1]	1.26
CCNC(=O)N1CCOc2cc3c(cc21)OCC1C3=NOC1CN1CCN(C/C(C)=C/c2ccccc2)CC1 (stereo not drawn) [Compound 16]	7.94
CCC(CC)Nc1cc2c(cc1OC)C1=NOC(CN3CCN(CC(C)=Cc4ccc(F)cc4)CC3)C1CO2 (stereo not drawn) [Compound 98]	126
CNc1cc2c(cc1OC)C1=NOC(CN3CCN(CC(C)=Cc4ccccc4)CC3)C1CO2 (stereo not drawn) [Compound 88]	5.01
CCNC(=O)Nc1ccc2c(c1)OCC1C2=NOC1CN1CCN(CC(C)=Cc2ccccc2)CC1 (stereo not drawn) [Compound 59]	7.94
COc1cc2c(cc1N(C)CCO)OCC1C2=NOC1CN1CCN(CC(C)=Cc2cccc(F)c2)CC1 (stereo not drawn) [Compound 36]	20

Other lines, results leading:

IC50 [nM]	SMILES
15.8	CC(=Cc1ccc(F)cc1)CN1CCN(CC2ON=C3c4ccc(N5CCC(C)C5=O)cc4OCC32)CC1 (stereo not drawn) [Compound 139]
200	CC(=Cc1ccc(F)cc1)CN1CCN(CC2ON=C3c4ccc(N(C)CCOC(=O)C5CCC5)cc4OCC32)CC1 (stereo not drawn) [Compound 108]
10	CC(=Cc1ccc(F)cc1)CN1CCN(CC2ON=C3c4ccc(N(C)CCN5CCC5)cc4OCC32)CC1 (stereo not drawn) [Compound 123]
7.94	COc1cc2c(cc1N1CCC1=O)OCC1C2=NOC1CN1CCN(CC(C)=Cc2ccc(F)cc2)CC1 (stereo not drawn) [Compound 107]
126	CC(=Cc1ccc(F)cc1)CN1CCN(CC2ON=C3c4ccc(NCC5CC5)cc4OCC32)CC1 (stereo not drawn) [Compound 130]
25.1	CC(=Cc1ccc(F)cc1)CN1CCN(CC2ON=C3c4ccc(N(C)CCNC5CCC5)cc4OCC32)CC1 (stereo not drawn) [Compound 111]
200	CC(=Cc1ccc(F)cc1)CN1CCN(CC2ON=C3c4ccc(N5CCCCCC5)cc4OCC32)CC1 (stereo not drawn) [Compound 125]

The molecules below were run against T2, hα2C receptor (Homo sapiens, UniProt P18825) (assay: Radioligand binding experiment for α2C-adrenergic receptor ([3H]-raulwolscine)). Conditions: CHO cell membranes with human α2C receptor, [3H]raulwolscine 1 nM; read-out: pIC50 α2C (converted).
T2 construct: expressed in transfected cells; host or cells: CHO cells
T2 sequence (P18825 1-462): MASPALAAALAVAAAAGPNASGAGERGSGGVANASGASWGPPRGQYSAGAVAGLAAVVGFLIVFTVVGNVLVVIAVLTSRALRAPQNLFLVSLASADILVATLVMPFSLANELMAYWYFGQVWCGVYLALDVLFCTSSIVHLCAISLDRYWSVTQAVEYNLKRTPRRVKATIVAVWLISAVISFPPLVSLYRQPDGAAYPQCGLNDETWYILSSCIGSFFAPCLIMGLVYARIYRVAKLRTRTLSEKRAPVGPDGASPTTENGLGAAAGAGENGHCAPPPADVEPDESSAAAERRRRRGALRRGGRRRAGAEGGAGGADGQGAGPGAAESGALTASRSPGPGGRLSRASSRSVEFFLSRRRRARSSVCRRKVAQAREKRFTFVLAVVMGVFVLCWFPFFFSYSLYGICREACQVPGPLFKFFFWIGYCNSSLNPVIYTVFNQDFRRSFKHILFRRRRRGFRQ
Experimental: as §1, §2, §3, §4

SMILES	IC50 [nM]
COc1cc2c(cc1N1CCCC1C)OCC1C2=NOC1CN1CCN(CC(C)=Cc2ccc(F)cc2)CC1 (stereo not drawn) [Compound 101]	31.6
COc1cc2c(cc1NCCN)OCC1C2=NOC1CN1CCN(CC(C)=Cc2ccc(F)cc2)CC1 (stereo not drawn) [Compound 97]	6.31
C/C(=C\c1ccccc1)CN1CCN(CC2ON=C3c4ccc(N(C)CCN(C)C)cc4OCC32)CC1 (stereo not drawn) [Compound 1]	1
CCNC(=O)N1CCOc2cc3c(cc21)OCC1C3=NOC1CN1CCN(C/C(C)=C/c2ccccc2)CC1 (stereo not drawn) [Compound 16]	0.794
CCC(CC)Nc1cc2c(cc1OC)C1=NOC(CN3CCN(CC(C)=Cc4ccc(F)cc4)CC3)C1CO2 (stereo not drawn) [Compound 98]	100
CNc1cc2c(cc1OC)C1=NOC(CN3CCN(CC(C)=Cc4ccccc4)CC3)C1CO2 (stereo not drawn) [Compound 88]	1.26
CCNC(=O)Nc1ccc2c(c1)OCC1C2=NOC1CN1CCN(CC(C)=Cc2ccccc2)CC1 (stereo not drawn) [Compound 59]	1.26
COc1cc2c(cc1N(C)CCO)OCC1C2=NOC1CN1CCN(CC(C)=Cc2cccc(F)c2)CC1 (stereo not drawn) [Compound 36]	2.51

Next, values leading:

IC50 [nM]	SMILES
7.94	CC(=Cc1ccc(F)cc1)CN1CCN(CC2ON=C3c4ccc(N5CCC(C)C5=O)cc4OCC32)CC1 (stereo not drawn) [Compound 139]
50.1	CC(=Cc1ccc(F)cc1)CN1CCN(CC2ON=C3c4ccc(N(C)CCOC(=O)C5CCC5)cc4OCC32)CC1 (stereo not drawn) [Compound 108]
3.16	CC(=Cc1ccc(F)cc1)CN1CCN(CC2ON=C3c4ccc(N(C)CCN5CCC5)cc4OCC32)CC1 (stereo not drawn) [Compound 123]
10	COc1cc2c(cc1N1CCC1=O)OCC1C2=NOC1CN1CCN(CC(C)=Cc2ccc(F)cc2)CC1 (stereo not drawn) [Compound 107]
25.1	CC(=Cc1ccc(F)cc1)CN1CCN(CC2ON=C3c4ccc(NCC5CC5)cc4OCC32)CC1 (stereo not drawn) [Compound 130]
6.31	CC(=Cc1ccc(F)cc1)CN1CCN(CC2ON=C3c4ccc(N(C)CCNC5CCC5)cc4OCC32)CC1 (stereo not drawn) [Compound 111]
158	CC(=Cc1ccc(F)cc1)CN1CCN(CC2ON=C3c4ccc(N5CCCCCC5)cc4OCC32)CC1 (stereo not drawn) [Compound 125]

Each molecule was assayed against T3, h5-HT transporter (Homo sapiens, UniProt P31645) (assay: Radioligand binding experiment for 5-HT transporter ([3H]paroxetine)). Conditions: human platelet membranes, [3H]paroxetine 0.5 nM.
T3 construct: Human platelet membranes (Oceanix Biosciences Corporation, Hanover, Md., USA) were thawed; tissue Oceanix Biosciences Corporation; host or cells: human platelet membranes
T3 sequence (P31645 whole entry): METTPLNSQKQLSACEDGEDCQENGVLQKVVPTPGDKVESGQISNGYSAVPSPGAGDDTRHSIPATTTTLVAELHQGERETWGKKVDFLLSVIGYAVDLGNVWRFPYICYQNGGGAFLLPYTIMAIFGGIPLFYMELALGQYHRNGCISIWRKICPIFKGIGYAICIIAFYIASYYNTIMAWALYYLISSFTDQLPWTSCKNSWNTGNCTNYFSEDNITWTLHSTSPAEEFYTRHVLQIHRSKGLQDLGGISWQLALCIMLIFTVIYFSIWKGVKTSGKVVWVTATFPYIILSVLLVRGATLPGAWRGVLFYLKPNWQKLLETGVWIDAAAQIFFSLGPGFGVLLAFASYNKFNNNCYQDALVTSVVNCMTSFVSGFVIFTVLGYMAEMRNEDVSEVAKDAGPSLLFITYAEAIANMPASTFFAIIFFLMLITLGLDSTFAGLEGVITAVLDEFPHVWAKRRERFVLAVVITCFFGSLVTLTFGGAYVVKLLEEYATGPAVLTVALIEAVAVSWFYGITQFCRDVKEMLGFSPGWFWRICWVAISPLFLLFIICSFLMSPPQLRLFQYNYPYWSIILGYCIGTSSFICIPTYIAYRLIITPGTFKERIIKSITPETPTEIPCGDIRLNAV
Experimental: as §1
Human platelet membranes (Oceanix Biosciences Corporation, Hanover, Md., USA) were thawed, diluted in buffer (Tris-HCl 50 mM, 120 mM NaCl and 5 mM KCl) and quickly (max 3 s) homogenised with an Ultraturrax homogenizer. In a total volume of 250 μL, 50-100 μg protein was incubated with [^3H]paroxetine (NET-869) (New England Nuclear, USA) (0.5 nM final concentration) with or without competitor for 60 min at 25° C. Incubation was stopped by rapid filtration of the incubation mixture over GF/B filters, pre-wetted with 0.1% polyethyleneamine, using a Filtermatel 96 harvester (Packard, Meriden, Conn.). Filters were rinsed extensively with ice-cold buffer and radioactivity on the filters was counted in a Topcount liquid scintillation counter (Packard, Meriden, Conn.). Data were expressed as cpm. Imipramine (at 1 μM final concentration) was used to determine the non-specific binding.
as §4

SMILES	IC50 [nM]
COc1cc2c(cc1N1CCCC1C)OCC1C2=NOC1CN1CCN(CC(C)=Cc2ccc(F)cc2)CC1 (stereo not drawn) [Compound 101]	158
COc1cc2c(cc1NCCN)OCC1C2=NOC1CN1CCN(CC(C)=Cc2ccc(F)cc2)CC1 (stereo not drawn) [Compound 97]	15.8
C/C(=C\c1ccccc1)CN1CCN(CC2ON=C3c4ccc(N(C)CCN(C)C)cc4OCC32)CC1 (stereo not drawn) [Compound 1]	6.31
CCNC(=O)N1CCOc2cc3c(cc21)OCC1C3=NOC1CN1CCN(C/C(C)=C/c2ccccc2)CC1 (stereo not drawn) [Compound 16]	7.94
CCC(CC)Nc1cc2c(cc1OC)C1=NOC(CN3CCN(CC(C)=Cc4ccc(F)cc4)CC3)C1CO2 (stereo not drawn) [Compound 98]	251
CNc1cc2c(cc1OC)C1=NOC(CN3CCN(CC(C)=Cc4ccccc4)CC3)C1CO2 (stereo not drawn) [Compound 88]	20
CCNC(=O)Nc1ccc2c(c1)OCC1C2=NOC1CN1CCN(CC(C)=Cc2ccccc2)CC1 (stereo not drawn) [Compound 59]	10
COc1cc2c(cc1N(C)CCO)OCC1C2=NOC1CN1CCN(CC(C)=Cc2cccc(F)c2)CC1 (stereo not drawn) [Compound 36]	25.1

Next, values leading:

IC50 [nM]	SMILES
126	CC(=Cc1ccc(F)cc1)CN1CCN(CC2ON=C3c4ccc(N5CCC(C)C5=O)cc4OCC32)CC1 (stereo not drawn) [Compound 139]
79.4	CC(=Cc1ccc(F)cc1)CN1CCN(CC2ON=C3c4ccc(N(C)CCOC(=O)C5CCC5)cc4OCC32)CC1 (stereo not drawn) [Compound 108]
7.94	CC(=Cc1ccc(F)cc1)CN1CCN(CC2ON=C3c4ccc(N(C)CCN5CCC5)cc4OCC32)CC1 (stereo not drawn) [Compound 123]
50.1	COc1cc2c(cc1N1CCC1=O)OCC1C2=NOC1CN1CCN(CC(C)=Cc2ccc(F)cc2)CC1 (stereo not drawn) [Compound 107]
126	CC(=Cc1ccc(F)cc1)CN1CCN(CC2ON=C3c4ccc(NCC5CC5)cc4OCC32)CC1 (stereo not drawn) [Compound 130]
12.6	CC(=Cc1ccc(F)cc1)CN1CCN(CC2ON=C3c4ccc(N(C)CCNC5CCC5)cc4OCC32)CC1 (stereo not drawn) [Compound 111]
158	CC(=Cc1ccc(F)cc1)CN1CCN(CC2ON=C3c4ccc(N5CCCCCC5)cc4OCC32)CC1 (stereo not drawn) [Compound 125]
